Reference: patent US20070243264A1, “Thickened Dilute Hypochlorite” (priority 2006, published 2007)
Like-named read-outs stand apart in the source and are kept apart here.

Assays:
[1] = Gel formation of hypochlorite thickened with Laponite with added buffers; settings: 200 ppm hypochlorite thickened with Laponite; for gel formation: acid added, amount not stated
[2] = Effect of thickeners on stability of dilute hypochlorite; assay type: physicochemical
Description: The amount of available halogen oxidant in the composition is determined by placing samples of the composition into about 50 milliliters of distilled water, followed by addition of about 10 milliliters of a 10 weight/weight percent solution of potassium iodide and addition of about 10 milliliters of a 10 volume percent solution of sulfuric acid, the resulting mixture being well stirred. The resulting yellow to brown solution, whose color is the result of oxidation of free iodine ion (I^−) to molecular iodine (I2), was then volumetrically titrated to an essentially colorless endpoint by addition of standardized 0.1 Molar sodium thiosulfate (Na2S2O3) titrant. Calculation then expresses the result as percent of available molecular chlorine (Cl2), that is to say assigning two equivalents per mole of titrated hypohalite oxidant. Stability results are then expressed by repeated assays over time using identically prepared samples resulting from the same composition, normalized to 100 percent representative of the starting available chlorine measured initially.

Question: What does the source list for `O=C(O)CCC(=O)O` [Succinic acid]?
Answer: gel ([1]; buffer Wt. % 0.01, pH 9.2): Yes; gel ([1]; buffer Wt. % 0.04, pH 8.2): Viscous liquid

Question: For sodium alkylbenzenesulfonate, which “stability of dilute hypochlorite with surfactant, compared with Vangel ES” value (shortened to “stability … compared with Vangel ES”) [2] is on record?
Answer: less stable than Vangel ES®

Question: For `CCCCCCCCCCCCOS(=O)(=O)[O-].[Na+]` [sodium lauryl sulfate], which “stability … compared with Vangel ES” value ([2]; comparison with thickeners of Table 4) is on record?
Answer: less stable than Vangel ES®

Question: Which “stability … compared with Vangel ES” value [2] does the source give for `CCCCCCCCS(=O)(=O)[O-].[Na+]` [sodium octyl sulfonate] here?
Answer: less stable than Vangel ES®

Question: Which results are given for `OB(O)O` [Boric acid]?
Answer: gel ([1]; buffer Wt. % 0.21, pH 8.5): Yes; gel ([1]; buffer Wt. % 0.41, pH 8.4): Yes

Question: For `CC(=O)O` [acetic acid], which gel formation [1] is on record?
Answer: Gels

Question: With `CCCCCCCCCCCCCCCC[N+](C)(C)C.[Cl-]` [trimethylC16 ammonium chloride] as the compound, how does the “stability … compared with Vangel ES” value [2] read?
Answer: less stable than Vangel ES®

Question: Which gel formation [1] does the source give for `Cl` [hydrochloric acid] here?
Answer: Gels
